Source: ChEMBL document CHEMBL5370606, “Diterpenoids from Euphorbia fischeriana with Kv1.3 Inhibitory Activity” (J Nat Prod, 2023)

These compounds were tested on HEK293 (assay: Cytotoxicity against HEK293 cells). Details: human.
Type: toxicity, cell-based

Compound	Activity
C/C1=C\[C@H]2[C@@H](OC(=O)c3ccccc3)[C@H](C)C[C@]2(O)[C@H](O)[C@@H](C)/C=C/C(C)(C)C(=O)C[C@H]1O	Non-Toxic
CC(=O)O[C@@H]1[C@@H](C)/C=C/C(C)(C)C(=O)C[C@@H](OC(C)=O)/C(C)=C/[C@H]2[C@@H](OC(=O)c3ccccc3)[C@H](C)C[C@]12O	Non-Toxic
CC(=O)O[C@@H]1CC(=O)C(C)(C)/C=C/[C@@H](C)[C@@H](O)[C@@]2(OC(C)=O)C[C@@H](C)[C@H](OC(=O)c3ccccc3)[C@@H]2/C=C/1C	Non-Toxic
COC(=O)CCC(=O)O[C@@H]1C[C@H]2[C@@H](/C=C(\C)C(=O)[C@@]3(OC(C)=O)C[C@@H](C)[C@H](O)[C@@H]3/C=C/1C)C2(C)C	Non-Toxic
Fc1ccc([C@@H]2CCNC[C@H]2COc2ccc3c(c2)OCO3)cc1 [PAROXETINE]	Non-Toxic
CC1=C2C=C3CC[C@@H]4C(C)(C)[C@H](O)C(=O)C[C@@]4(C)[C@@H]3C[C@H]2OC1=O	Non-Toxic
CC1(C)C(=O)CC[C@]2(C)[C@@H]1CC[C@@]13CC[C@@H](C[C@H]12)[C@](O)(CO)C3	Non-Toxic
CC1(C)[C@H](O)CC[C@]2(C)[C@@H]1CC[C@@]13CC[C@@H](C[C@H]12)[C@](O)(CO)C3	Non-Toxic
CC(=O)O[C@]12C[C@@H](C)[C@H](O)[C@@H]1[C@H]1O[C@]1(C)[C@H](O)C[C@H]1[C@@H](/C=C(\C)C2=O)C1(C)C	Non-Toxic
CC(=O)OCC1=C[C@@H]2C(=O)[C@]3(C=C(C)[C@H](O)[C@@]3(O)[C@@H]1O)[C@H](C)C[C@@H]1[C@H]2C1(C)C	Non-Toxic
CC(=O)O[C@]12C[C@@H](C)[C@H](O)[C@@H]1/C=C(\C)[C@H](O)C[C@H]1[C@@H](/C=C(\C)C2=O)C1(C)C	Non-Toxic

These compounds were tested against T1, hERG (KCNH2) (Homo sapiens, UniProt Q12809) (assay: Inhibition of human ERG expressed in HEK293 cells at 10 uM at -80 mV holding potential by whole-cell patch clamp method). Details: HEK293 cells that express hERG.
Type: toxicity, cell-based

T1 sequence (Q12809 whole entry): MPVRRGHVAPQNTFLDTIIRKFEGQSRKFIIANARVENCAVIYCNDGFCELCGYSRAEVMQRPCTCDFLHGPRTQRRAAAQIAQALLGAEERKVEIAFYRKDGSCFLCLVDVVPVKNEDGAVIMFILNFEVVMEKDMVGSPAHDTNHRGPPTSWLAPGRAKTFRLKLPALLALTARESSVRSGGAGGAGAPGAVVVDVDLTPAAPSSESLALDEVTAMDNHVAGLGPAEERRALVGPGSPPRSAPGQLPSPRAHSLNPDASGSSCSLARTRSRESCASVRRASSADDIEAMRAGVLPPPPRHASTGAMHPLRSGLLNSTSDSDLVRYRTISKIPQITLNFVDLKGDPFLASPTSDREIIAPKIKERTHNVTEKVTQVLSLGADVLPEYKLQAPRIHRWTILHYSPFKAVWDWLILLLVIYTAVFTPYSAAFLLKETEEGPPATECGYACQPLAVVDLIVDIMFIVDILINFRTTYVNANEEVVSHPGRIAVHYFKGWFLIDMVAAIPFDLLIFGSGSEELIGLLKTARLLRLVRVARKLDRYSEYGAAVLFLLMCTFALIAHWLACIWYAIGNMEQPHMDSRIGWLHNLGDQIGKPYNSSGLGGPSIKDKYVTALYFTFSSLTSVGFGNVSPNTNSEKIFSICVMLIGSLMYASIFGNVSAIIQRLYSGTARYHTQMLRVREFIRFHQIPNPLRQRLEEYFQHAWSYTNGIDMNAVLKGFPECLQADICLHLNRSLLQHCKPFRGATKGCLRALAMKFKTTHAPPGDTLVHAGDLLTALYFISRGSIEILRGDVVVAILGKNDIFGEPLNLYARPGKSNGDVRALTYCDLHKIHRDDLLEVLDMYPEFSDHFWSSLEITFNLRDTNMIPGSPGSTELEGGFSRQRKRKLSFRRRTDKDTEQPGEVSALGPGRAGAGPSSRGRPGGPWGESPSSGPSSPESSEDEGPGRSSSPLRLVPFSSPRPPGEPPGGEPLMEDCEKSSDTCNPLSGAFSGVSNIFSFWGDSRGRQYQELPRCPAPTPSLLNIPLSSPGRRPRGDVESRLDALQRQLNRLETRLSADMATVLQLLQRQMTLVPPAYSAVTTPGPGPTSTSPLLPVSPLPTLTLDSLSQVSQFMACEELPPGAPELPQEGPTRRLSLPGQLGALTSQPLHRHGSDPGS

Compound	inhibition at 10 µM [%]
CC(=O)O[C@@H]1CC(=O)C(C)(C)/C=C/[C@@H](C)[C@@H](O)[C@@]2(OC(C)=O)C[C@@H](C)[C@H](OC(=O)c3ccccc3)[C@@H]2/C=C/1C	36.9
COC(=O)CCC(=O)O[C@@H]1C[C@H]2[C@@H](/C=C(\C)C(=O)[C@@]3(OC(C)=O)C[C@@H](C)[C@H](O)[C@@H]3/C=C/1C)C2(C)C	29.7

The compounds below were run against T2, Potassium voltage-gated channel subfamily A member 3 (Homo sapiens, UniProt P22001) (assay: Inhibition of Kv1.3 (unknown origin) expressed in HEK293 cells at 30 uM at -90 mV holding potential by automated patch-clamp technique relative to control). Details: not given.
Type: cell-based

T2 sequence (P22001 whole entry): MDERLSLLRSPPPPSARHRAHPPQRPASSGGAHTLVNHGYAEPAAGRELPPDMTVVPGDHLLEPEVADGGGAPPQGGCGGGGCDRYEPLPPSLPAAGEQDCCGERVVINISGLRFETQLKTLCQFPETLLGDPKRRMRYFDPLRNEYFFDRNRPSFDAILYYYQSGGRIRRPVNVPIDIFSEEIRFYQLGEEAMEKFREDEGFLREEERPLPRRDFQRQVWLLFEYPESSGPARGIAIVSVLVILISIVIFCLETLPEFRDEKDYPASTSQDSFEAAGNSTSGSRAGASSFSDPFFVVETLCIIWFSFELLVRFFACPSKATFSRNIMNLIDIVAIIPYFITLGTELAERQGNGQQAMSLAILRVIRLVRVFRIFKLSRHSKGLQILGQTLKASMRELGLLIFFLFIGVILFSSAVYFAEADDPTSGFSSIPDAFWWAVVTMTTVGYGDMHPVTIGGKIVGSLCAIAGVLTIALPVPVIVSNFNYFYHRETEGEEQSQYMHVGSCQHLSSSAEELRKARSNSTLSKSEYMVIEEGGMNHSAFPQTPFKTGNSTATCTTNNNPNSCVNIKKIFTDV

inhibition [%]	Compound
83.5	C/C1=C\[C@H]2[C@@H](OC(=O)c3ccccc3)[C@H](C)C[C@]2(O)[C@H](O)[C@@H](C)/C=C/C(C)(C)C(=O)C[C@H]1O
72	CC(=O)O[C@@H]1[C@@H](C)/C=C/C(C)(C)C(=O)C[C@@H](OC(C)=O)/C(C)=C/[C@H]2[C@@H](OC(=O)c3ccccc3)[C@H](C)C[C@]12O
86.5	CC(=O)O[C@@H]1CC(=O)C(C)(C)/C=C/[C@@H](C)[C@@H](O)[C@@]2(OC(C)=O)C[C@@H](C)[C@H](OC(=O)c3ccccc3)[C@@H]2/C=C/1C
89.4	COC(=O)CCC(=O)O[C@@H]1C[C@H]2[C@@H](/C=C(\C)C(=O)[C@@]3(OC(C)=O)C[C@@H](C)[C@H](O)[C@@H]3/C=C/1C)C2(C)C
35.1	Fc1ccc([C@@H]2CCNC[C@H]2COc2ccc3c(c2)OCO3)cc1 [PAROXETINE]
20.4	CC1=C2C=C3CC[C@@H]4C(C)(C)[C@H](O)C(=O)C[C@@]4(C)[C@@H]3C[C@H]2OC1=O
7.1	CC1(C)C(=O)CC[C@]2(C)[C@@H]1CC[C@@]13CC[C@@H](C[C@H]12)[C@](O)(CO)C3
21	CC1(C)[C@H](O)CC[C@]2(C)[C@@H]1CC[C@@]13CC[C@@H](C[C@H]12)[C@](O)(CO)C3
75.1	CC(=O)O[C@]12C[C@@H](C)[C@H](O)[C@@H]1[C@H]1O[C@]1(C)[C@H](O)C[C@H]1[C@@H](/C=C(\C)C2=O)C1(C)C
67.5	CC(=O)O[C@]12C[C@@H](C)[C@H](O)[C@@H]1/C=C(\C)[C@H](O)C[C@H]1[C@@H](/C=C(\C)C2=O)C1(C)C

Compound	inhibition [%]
CC(=O)OCC1=C[C@@H]2C(=O)[C@]3(C=C(C)[C@H](O)[C@@]3(O)[C@@H]1O)[C@H](C)C[C@@H]1[C@H]2C1(C)C	12.5

These compounds were tested against T2, Potassium voltage-gated channel subfamily A member 3 (assay: Inhibition of Kv1.3 (unknown origin) expressed in HEK293 cells at 10 uM at -90 mV holding potential by automated patch-clamp technique relative to control). Details: not given.
Type: cell-based

inhibition [%]	Compound
43.5	C/C1=C\[C@H]2[C@@H](OC(=O)c3ccccc3)[C@H](C)C[C@]2(O)[C@H](O)[C@@H](C)/C=C/C(C)(C)C(=O)C[C@H]1O
30.2	CC(=O)O[C@@H]1[C@@H](C)/C=C/C(C)(C)C(=O)C[C@@H](OC(C)=O)/C(C)=C/[C@H]2[C@@H](OC(=O)c3ccccc3)[C@H](C)C[C@]12O
62.2	CC(=O)O[C@@H]1CC(=O)C(C)(C)/C=C/[C@@H](C)[C@@H](O)[C@@]2(OC(C)=O)C[C@@H](C)[C@H](OC(=O)c3ccccc3)[C@@H]2/C=C/1C
47.6	COC(=O)CCC(=O)O[C@@H]1C[C@H]2[C@@H](/C=C(\C)C(=O)[C@@]3(OC(C)=O)C[C@@H](C)[C@H](O)[C@@H]3/C=C/1C)C2(C)C
39.2	CC(=O)O[C@]12C[C@@H](C)[C@H](O)[C@@H]1[C@H]1O[C@]1(C)[C@H](O)C[C@H]1[C@@H](/C=C(\C)C2=O)C1(C)C
21.7	CC(=O)O[C@]12C[C@@H](C)[C@H](O)[C@@H]1/C=C(\C)[C@H](O)C[C@H]1[C@@H](/C=C(\C)C2=O)C1(C)C

Each compound was assayed against T1, hERG (KCNH2) (assay: Inhibition of human ERG expressed in HEK293 cells at 30 uM at -80 mV holding potential by whole-cell patch clamp method). Details: HEK293 cells that express hERG.
Type: toxicity, cell-based

Compound	inhibition at 30 µM [%]
CC(=O)O[C@@H]1CC(=O)C(C)(C)/C=C/[C@@H](C)[C@@H](O)[C@@]2(OC(C)=O)C[C@@H](C)[C@H](OC(=O)c3ccccc3)[C@@H]2/C=C/1C	60.2
COC(=O)CCC(=O)O[C@@H]1C[C@H]2[C@@H](/C=C(\C)C(=O)[C@@]3(OC(C)=O)C[C@@H](C)[C@H](O)[C@@H]3/C=C/1C)C2(C)C	49.7
CC(=O)OCC1=C[C@@H]2C(=O)[C@]3(C=C(C)[C@H](O)[C@@]3(O)[C@@H]1O)[C@H](C)C[C@@H]1[C@H]2C1(C)C	23.3
